Results reported in patent US20070009593A1, “Methods of treating cancer” (Indianan University Advanced Research, priority 2002, published 2007).
Each block holds one compound with its values, some of them ahead of it. Peptide text beside a SMILES is read from it. * marks the point of attachment. Cbz = O=C(OCc1ccccc1)*

Experiments:
Caco 2 cells = test: proliferation / combination assay in colon cancer cells; format: cell-based; conditions: Homo sapiens; Caco 2, single agent; read-out: IC50
A549 [1] = test: MTT assay, NSCLC cell line; format: cell-based; conditions: Homo sapiens; for IC80: A549, MTT assay, single agent; for IC50: MTT assay
H522 = test: MTT assay, NSCLC cell line; format: cell-based; conditions: Homo sapiens; for IC50: NCI-H522; for IC80: NCI-H522, single agent
H460 [2] = test: MTT assay, NSCLC cell line; format: cell-based; conditions: Homo sapiens; for IC50: NCI-H460; for IC80: NCI-H460, single agent
H23 [3] = test: MTT assay, NSCLC cell line; format: cell-based; conditions: Homo sapiens, NCI-H23
MDA-231 = test: MTT assay, breast cancer line; format: cell-based; conditions: Homo sapiens, MDA-MB-231; MDA-231, 48 hours, MTT, single agent; read-out: IC50
Method: The drugs were tested together at the ratio of their IC50 as single agents, over a 4-log range of concentrations. […] Viable cell number was measured by MTT assay.

[4] = biological target: T1, chymotryptic active site of the proteasome (ZGGL-AMC cleavage) (Homo sapiens, UniProt P28074); test: fluorometric assay of ZGGL-AMC cleavage by Caco 2 cells; format: cell-based; conditions: for ZGGL-AMC cleavage: Caco 2 cells (DMSO control 0.287)
T1 construct: Fluorometric assay of ZGGL-AMC cleavage by Caco 2 cells; endogenous in cells; host or cells: Caco 2

HUVEC = HUVEC cell spreading assay; format: cell-based, human; conditions: 100 μM, same spreading conditions
Method: Cells were fixed in 3.7% formaldehyde in PBS, blocked and stained with Oregon-green phalloidin 514 (Molecular Probes), and then digitally photographed using a Zeiss inverted fluorescence microscope equipped with a CCD camera. Cell areas were measured on the digital images using the Spot program (Diagnostic Imaging).

A549 [5] = test: cell survival at 60 hours, amprenavir; format: cell-based; conditions: A549, 60 hours, FIG. 4
Text: (§1) Three cancer cell lines (A549, H460, and H23) where treated with varying doses of amprenavir.

H23 [6] = test: cell survival at 60 hours, amprenavir; format: cell-based; conditions: H23, 60 hours, FIG. 4
Text: as §1

H460 [7] = test: cell survival at 60 hours, amprenavir; format: cell-based; conditions: H460, 60 hours, FIG. 4
Text: as §1

Compound: CC(=O)O[C@@]12CO[C@@H]1C[C@H](O)[C@@]1(C)C(=O)[C@H](O)C3=C(C)[C@@H](OC(=O)[C@H](O)[C@@H](NC(=O)OC(C)(C)C)c4ccccc4)C[C@@](O)([C@@H](OC(=O)c4ccccc4)[C@H]21)C3(C)C [Docetaxel, docetaxel]
IC80 (A549 [1]): > 50 nM
IC50 (A549 [1]): 4.5 nM
IC50 (H522): 4.9 nM
IC80 (H522): > 50 nM
IC50 (H460 [2]): 5 nM
IC80 (H460 [2]): > 50 nM
IC50 (H23 [3]): 5.5 nM
IC50 (MDA-231): 10 nM
IC50 (Caco 2 cells): 5 nM

Compound: O=c1[nH]cc(F)c(=O)[nH]1 [Formula 5-FU, 5-fluorouracil]
IC50 (Caco 2 cells): 28000 nM

Compound: CC(C)[C@H](NC(=O)OCc1ccccc1)C(=O)N[C@H](C=O)Cc1ccccc1 [MDL 28, 170] (Cbz-Val-Phe-aldehyde)
blocked spreading (HUVEC): 21%

Compound: amprenavir
IC50 (A549 [5]): 4000 to 5000 nM
IC50 (H23 [6]): 4000 to 5000 nM
IC50 (H460 [7]): 4000 to 5000 nM

Continued, in another order:

IC50 (Caco 2 cells): 60000 nM
Compound: Cc1ccc(-c2cc(C(F)(F)F)nn2-c2ccc(S(N)(=O)=O)cc2)cc1 [Celecoxib, celecoxib]

blocks substrate cleavage (ZGGL-AMC) ([4]; 5 μM, Caco 2 cells): over 95%
ZGGL-AMC cleavage ([4]; 5 μM): 0.022 pmol·s^1− 10^6 cells
Compound: CC(=O)N[C@@H](CSC(=O)[C@]1([C@@H](O)C(C)C)NC(=O)[C@H](C)[C@@H]1O)C(=O)O [Lactacystin, lactacystin]

ZGGL-AMC cleavage ([4]; 50 μM): 0.187 pmol·s^1− 10^6 cells
blocks ZGGL-AMC cleavage ([4]; Caco 2 cells (50 μM in table)): less than 30%
Compound: O=C(O)/C(S)=C/c1ccc(I)cc1 [PD150606]

IC50 (A549 [1]): 90 nM
IC50 (H522): 105 nM
IC50 (H460 [2]): 120 nM
IC50 (Caco 2 cells): 400 nM
Compound: CC(=O)O[C@H]1C(=O)[C@@]2(C)[C@H]([C@H](OC(=O)c3ccccc3)[C@]3(O)C[C@H](OC(=O)[C@H](O)[C@@H](NC(=O)c4ccccc4)c4ccccc4)C(C)=C1C3(C)C)[C@]1(OC(C)=O)CO[C@@H]1C[C@@H]2O [Paclitaxel, paclitaxel]
IC80 (A549 [1]): > 200 nM
IC80 (H522): > 200 nM
IC80 (H460 [2]): > 200 nM
IC50 (H23 [3]): 110 nM
